Experimental data taken from PMC2671240 (Journal of medicinal chemistry, 2009).
“And” between values parts separate entries of the source, which are not always exact repeats. Equal entries are not always repeated. Where two headings read alike, the source gives them in different places. Marks after values point to notes of the source that are not given here.

Columns and labels:
[1] = system: subcutaneous pentylenetetrazole induced seizures; settings: mice IP; cited from earlier work
[2] = system: subcutaneous pentylenetetrazole induced seizures; settings: rat PO; cited from earlier work
[3] = system: maximal electroshock induced seizures; assay: Maximal electroshock seizure; assay type: in vivo; settings: rat PO, 30 mg/kg
[4] = system: subcutaneous pentylenetetrazole induced seizures; assay: Subcutaneous metrazole seizure; assay type: in vivo, rat; settings: for scMET, number protected/number tested: rat PO
[5] = system: minimal muscular or neurological impairment (gait); assay: TOX, abnormal uncoordinated gait, rat PO; assay type: in vivo
[6] = system: subcutaneous pentylenetetrazole induced seizures; assay: Subcutaneous metrazole seizure; assay type: in vivo; settings: rat IP, 50 mg/kg
[7] = system: minimal muscular or neurological impairment (gait); assay: TOX, abnormal uncoordinated gait, rat IP; assay type: in vivo
kindled motor seizure = assay: Preliminary hippocampal kindling screen, rats IP; assay type: in vivo
α1β3γ2 GABAA receptors = α1β3γ2 GABAA receptors (Homo sapiens, UniProt P14867+P18507); assay: Stimulation of GABA-induced currents in oocytes expressing GABAA receptors; settings: concentration not given
Chain of α1β3γ2 GABAA receptors (P14867 28-456): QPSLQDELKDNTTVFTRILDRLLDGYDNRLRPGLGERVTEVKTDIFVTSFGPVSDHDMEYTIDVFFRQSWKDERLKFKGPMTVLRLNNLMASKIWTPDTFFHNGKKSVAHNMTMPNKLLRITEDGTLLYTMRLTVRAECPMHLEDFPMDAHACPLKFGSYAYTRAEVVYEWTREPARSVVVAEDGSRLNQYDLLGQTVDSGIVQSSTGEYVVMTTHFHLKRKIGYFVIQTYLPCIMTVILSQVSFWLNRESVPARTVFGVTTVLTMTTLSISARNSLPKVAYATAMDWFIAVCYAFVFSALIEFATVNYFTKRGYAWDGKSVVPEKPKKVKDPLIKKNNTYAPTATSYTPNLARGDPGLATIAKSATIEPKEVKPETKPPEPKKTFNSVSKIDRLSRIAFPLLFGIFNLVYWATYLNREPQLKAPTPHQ
Chain of α1β3γ2 GABAA receptors (P28472 26-473 partner): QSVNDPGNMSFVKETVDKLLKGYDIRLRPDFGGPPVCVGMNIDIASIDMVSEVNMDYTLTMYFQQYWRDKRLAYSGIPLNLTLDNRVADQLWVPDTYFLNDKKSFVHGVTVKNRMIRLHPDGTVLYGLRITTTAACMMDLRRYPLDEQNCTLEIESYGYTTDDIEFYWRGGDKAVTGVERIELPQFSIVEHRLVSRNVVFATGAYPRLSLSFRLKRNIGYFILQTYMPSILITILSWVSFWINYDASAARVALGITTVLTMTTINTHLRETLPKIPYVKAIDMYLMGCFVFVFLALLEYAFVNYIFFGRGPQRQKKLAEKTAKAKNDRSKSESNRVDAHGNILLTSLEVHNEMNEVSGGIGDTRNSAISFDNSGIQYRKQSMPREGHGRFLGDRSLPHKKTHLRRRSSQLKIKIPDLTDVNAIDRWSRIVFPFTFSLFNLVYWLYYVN
Chain of α1β3γ2 GABAA receptors (P18507 40-475): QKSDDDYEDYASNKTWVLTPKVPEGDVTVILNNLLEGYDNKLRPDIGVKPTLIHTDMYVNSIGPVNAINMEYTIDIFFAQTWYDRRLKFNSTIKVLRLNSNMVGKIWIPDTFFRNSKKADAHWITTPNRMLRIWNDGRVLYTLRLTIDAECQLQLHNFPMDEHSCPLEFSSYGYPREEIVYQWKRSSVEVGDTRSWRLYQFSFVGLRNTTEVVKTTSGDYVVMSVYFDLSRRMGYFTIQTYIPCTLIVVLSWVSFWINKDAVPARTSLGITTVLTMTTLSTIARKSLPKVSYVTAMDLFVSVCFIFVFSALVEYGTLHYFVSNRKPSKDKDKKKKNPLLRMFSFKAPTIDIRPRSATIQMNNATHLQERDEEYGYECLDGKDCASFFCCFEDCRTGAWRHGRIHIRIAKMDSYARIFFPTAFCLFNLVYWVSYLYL

[8] = system: maximal electroshock induced seizures; assay: Maximal electroshock seizure; assay type: in vivo; settings: mice IP, 100mg/kg
[9] = system: subcutaneous pentylenetetrazole induced seizures; assay: Subcutaneous metrazole seizure; assay type: in vivo, mice; settings: 100mg/kg; for scMET, number protected/number tested: mice IP
[10] = system: minimal muscular or neurological impairment (rotorod); assay: TOX, motor impairment by rotorod paradigm, mice IP; assay type: in vivo; settings: 100mg/kg
[11] = chronic dosing (5 days), data from NINDS; cited from earlier work
seizures = assay: Antiseizure activity in mice dosed ip; assay type: in vivo; settings: data not shown
[12] = rats IP, 30mg/kg, after 1h of dosing (kindling screen table)

| SMILES | ED50 scMET [1] | MES, number protected/number tested ([3]; 0.5 h) | MES, number protected/number tested ([3]; 4.0 h) | scMET, number protected/number tested ([4]; 50 mg/kg, 0.5 h) | scMET, number protected/number tested ([4]; 50 mg/kg, 4.0 h) | TOX, number toxic/number tested ([5]; 0.5 h) | TOX, number toxic/number tested ([5]; 4.0 h) | scMET, number protected/number tested ([6]; 0.5 h) | scMET, number protected/number tested ([6]; 4.0 h) | TOX, number toxic/number tested ([7]; rat IP, 0.5 h) | TOX, number toxic/number tested ([7]; rat IP, 4.0 h) | TOX, number toxic/number tested [7, 12] | efficacy at α1 (α1β3γ2 GABAA receptors) | other results |
| --- | --- | --- | --- | --- | --- | --- | --- | --- | --- | --- | --- | --- | --- | --- |
| O=C1NC(=O)C(c2ccccc2)(c2ccccc2)N1 [Phenytoin] | >50 mg/kg | – | – | – | – | – | – | – | – | – | – | – | – | ED50 scMET [2]: >500 mg/kg |
| NC(=O)N1c2ccccc2C=Cc2ccccc21 [Carbamazepine] | >50 mg/kg | – | – | – | – | – | – | – | – | – | – | – | – | – |
| C#Cc1ccc2c(c1)C(c1ccccc1F)=NCc1c(C(=O)OCC)ncn1-2 [compound 3] | – | 0/4 | 1/4 | 3/4 | 4/4 | 0/4 | 0/4 | 3/4 | 3/4 | 0/4 | 0/4 | 0/2 ^e | 282% | Seizure Score, Drug L - H (kindled motor seizure; 50mg/kg, pre-drug 5): 3 |
| C#Cc1ccc2c(c1)C(c1ccccc1Cl)=NCc1nnc(C)n1-2 [compound 4] | – | 0/4 | 0/4 | 4/4 | 3/4 | 0/4 | 0/4 | – | – | – | – | – | – | scMET, number protected/number tested ([4]; 15 mg/kg, 0.5 h): 3/4; scMET, number protected/number tested ([4]; 15 mg/kg, 4.0 h): 2/4; TOX, number toxic/number tested ([7]; rats IP, 3mg/kg, after 1h of dosing (kindling screen table)): 0/2 ^f; Seizure Score, Drug L - H (kindled motor seizure; 10mg/kg, pre-drug 5): 3 |
| C#Cc1ccc2c(c1)C(c1ccccn1)=NCc1c(C(=O)OCC)ncn1-2 [compound 2] | – | 1/4 | 0/4 | 4/4 | 0/4 | 0/4 | 0/4 | 7/8 | – | 0/8 | – | 0/2 ^e | 233% | MES, number protected/number tested ([8]; 0.5 h): 0/3; MES, number protected/number tested ([8]; 4.0 h): 0/3; scMET, number protected/number tested ([9]; 0.5 h): 3/5; scMET, number protected/number tested ([9]; 4.0 h): absent and 0/1; mice with raised scMET seizure threshold ([9]; mice ip, 0.5 h): 60%; TOX, number toxic/number tested ([10]; 0.5 h): no motor impairment and 0/8; TOX, number toxic/number tested ([10]; 4.0 h): 0/4; protection (scMET) ([4]; rats, po dosing, after four hours): no protection; TOX, number toxic/number tested ([7]; rat IP, after 1 h of dosing (footnote d, row 4.0 h)): 0/8 ^d; Seizure Score, Drug L - H (kindled motor seizure; 100mg/kg, pre-drug 4 5): 3; tolerance to the anticonvulsant effects [11]: did not develop |
| CCOC(=O)c1ncn2c1CN=C(c1ccccc1F)c1cc(I)ccc1-2 [compound 5] | – | – | – | 2/6 | – | 0/6 | – | 1/4 | 2/4 | 0/4 | 0/4 | – | – | scMET, number protected/number tested ([4]; 50 mg/kg, after 1 h of dosing (footnote d, row 4.0 h), 50 mg/kg): 5/6 and 5/6 ^d; TOX, number toxic/number tested ([5]; after 1 h of dosing (footnote d, row 4.0 h)): no observed TOX and 0/6 ^d; activity in mice dosed ip (seizures): no activity |
